Measured values: patent publication US12590062B2, “PD-1/PD-L1 inhibitors” (Gilead Sciences, Inc., priority 2017, dated 2026)

Tests used:
[1] = biological target: T1, interaction between the recombinant extracellular domain (ECD) of PD-1 and native cell-bound PD-L1 (Homo sapiens, UniProt Q9NZQ7); assay: CHO/PD-L1 cell capture assay; assay type: cell-based; settings: CHO cells overexpressing PD-L1, pre-incubated 1 hr with compound, captured on biotinylated Fc-PD-1 coated plates, 75 min at room temperature
T1 construct: expressed in transfected cells
Experimental: EC50-CHO/PD-L1-Capture Assay:
Compounds were tested in a cell capture assay to determine if they can specifically block the interaction between the recombinant extracellular domain (ECD) of PD-1 and native cell-bound PD-L1. Binding affinity of stable CHO cells overexpressing PD-L1 with its cognate recombinant ligand coated on plates was measured by counting the number of ‘captured’ cells. High-capacity streptavidin- coated plates were incubated with biotylated-Fc-PD-1 for 2 hours in PBS. Unbound ligand was washed out. CHO-PD-L1 cells (resuspended in PBS pH 7.4, 0.5 mM EDTA, and 2% bovine serum albumin) were pre-incubated for 1 hr with compound, dispensed into each PD-1 ECD coated well and then incubated for 75 min at room temperature. To stop the capture assay, a fixative/staining solution (final concentrations are 1.3% glutaraldehyde and 1.67 μM Draq5) was gently added to the cells and incubated for 2 hrs at room temperature. Unbound cells were then washed out and ‘captured’ cells were enumerated using a high-content microscopy system. EC50 values were calculated from the fit of the dose-response curves to a four-parameter equation. Representative data are shown below in Table 2.

PD-1/PD-L1 interaction = biological target: T2, PD-1/PD-L1 interaction (Homo sapiens, UniProt Q9NZQ7); assay: PD-1/PD-L1 NFAT reporter co-culture assay; assay type: cell-based; settings: Jurkat PD-1 NFAT-luciferase cells co-cultured with aAPC-PD-L1 CHO cells, 6 hrs at 37° C.; read-out: EC50 NFAT Luciferase
T2 construct: expressed in transfected cells; host or cells: CHO cells (aAPC-PD-L1) co-cultured with Jurkat cells overexpressing PD-1 and an NFAT-luciferase reporter
How it was run: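 Jurkat cells overexpressing PD-1 with NFAT-luciferase mixed with compounds and plated onto CHO aAPCs expressing anti-CD3 and PD-L1, RPMI with 2% FBS. Co-culture 6 h at 37 °C; luminescence read with ONE-Glo. EC50 from four-parameter fit.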

T2 sequence (Q9NZQ7 19-290): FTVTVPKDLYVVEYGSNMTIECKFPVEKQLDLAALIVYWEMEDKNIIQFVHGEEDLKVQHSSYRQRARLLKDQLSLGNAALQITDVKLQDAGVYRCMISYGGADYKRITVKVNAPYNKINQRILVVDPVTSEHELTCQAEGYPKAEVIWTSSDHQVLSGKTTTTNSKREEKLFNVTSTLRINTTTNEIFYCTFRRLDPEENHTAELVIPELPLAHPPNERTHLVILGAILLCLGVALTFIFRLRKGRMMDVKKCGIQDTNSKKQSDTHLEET
T1 sequence (Q9NZQ7 19-290): as above

SMILES | EC50 [1] [nM] | EC50 (PD-1/PD-L1 interaction) [nM]
Cc1c(COc2cc(OCc3cncc(C#N)c3)c(CNC[C@@H](O)CC(=O)O)cc2Cl)cccc1-c1cccc(-c2ccc(OCCNC[C@@H](O)CC(=O)O)cc2F)c1C [Example 111, (S)-4-((4-((4″-(2-(((S)-3-carboxy-2-hydroxypropyl)amino)ethoxy)-2″-fluoro-2,2′-dimethyl-[1,1′:3′,1″-terphenyl]-3-yl)methoxy)-5-chloro-2-((5-cyanopyridin-3-yl)methoxy)benzyl)amino)-3-hydroxybutanoic acid] | 45.7 | 129
COc1nc(OCc2cccc(-c3cccc(COc4nc(OC)c(CNCCCC(N)=O)cc4Br)c3C)c2C)c(Br)cc1CNCCCC(N)=O [Example 116, 4,4′-((((((2,2′-dimethyl-[1,1′-biphenyl]-3,3′-diyl)bis(methylene))bis(oxy))bis(5-bromo-2-methoxypyridine-6,3-diyl))bis(methylene))bis(azanediyl))dibutanamide] | 134 | 702
COc1nc(OCc2cccc(-c3cccc(COc4nc(OC)c(CN(CCCC(N)=O)CC(=O)O)cc4Br)c3C)c2C)c(Br)cc1CNCCCC(N)=O [Example 118, N-(4-amino-4-oxobutyl)-N-((6-((3′-(((5-(((4-amino-4-oxobutyl)amino)methyl)-3-bromo-6-methoxypyridin-2-yl)oxy)methyl)-2,2′-dimethyl-[1,1′-biphenyl]-3-yl)methoxy)-5-bromo-2-methoxypyridin-3-yl)methyl)glycine] | 169 | 823
Cc1c(COc2nc(OCc3cc(C#N)cc(C#N)c3)c(CNC[C@@H](O)CC(=O)O)cc2Cl)cccc1-c1cccc(COc2nc(OCc3cc(C#N)cc(C#N)c3)c(CNC[C@@H](O)CC(=O)O)cc2Cl)c1C [Example 122, (3S,3′S)-4,4′-((((((2,2′-dimethyl-[1,1′-biphenyl]-3,3′-diyl)bis(methylene))bis(oxy))bis(5-chloro-2-((3,5-dicyanobenzyl)oxy)pyridine-6,3-diyl))bis(methylene))bis(azanediyl))bis(3-hydroxybutanoic acid)] | 192 | 79
Cc1c(COc2nc(OCC3CCO3)c(CNC[C@@H](O)CC(=O)O)cc2Br)cccc1-c1cccc(COc2nc(OCC3CCO3)c(CNC[C@@H](O)CC(=O)O)cc2Br)c1C (stereo partly drawn) [Example 131, (3S,3′S)-4,4′-((((((2,2′-dimethyl-[1,1′-biphenyl]-3,3′-diyl)bis(methylene))bis(oxy))bis(5-bromo-2-(oxetan-2-ylmethoxy)pyridine-6,3-diyl))bis(methylene))bis(azanediyl))bis(3-hydroxybutanoic acid)] | 231 | 964
CNC(=O)CCOc1nc(OCc2cccc(-c3cccc(COc4nc(OCCC(=O)NC)c(CNC[C@@H](O)CC(=O)O)cc4Cl)c3C)c2C)c(Cl)cc1CNC[C@@H](O)CC(=O)O [Example 134, (3S,3′S)-4,4′-((((((2,2′-dimethyl-[1,1′-biphenyl]-3,3′-diyl)bis(methylene))bis(oxy))bis(5-chloro-2-(3-(methylamino)-3-oxopropoxy)pyridine-6,3-diyl))bis(methylene))bis(azanediyl))bis(3-hydroxybutanoic acid)] | 112 | 660
Cc1c(COc2nc(OCCC(N)=O)c(CNC[C@@H](O)CC(=O)O)cc2Br)cccc1-c1cccc(COc2nc(OCCC(N)=O)c(CNC[C@@H](O)CC(=O)O)cc2Br)c1C [Example 145, (3S,3′S)-4,4′-((((((2,2′-dimethyl-[1,1′-biphenyl]-3,3′-diyl)bis(methylene))bis(oxy))bis(2-(3-amino-3-oxopropoxy)-5-bromopyridine-6,3-diyl))bis(methylene))bis(azanediyl))bis(3-hydroxybutanoic acid)] | 63.6 | 362
Cc1c(COc2nc(OCc3cc(C#N)ccn3)c(CNC[C@@H](O)CC(=O)O)cc2Br)cccc1-c1cccc(COc2nc(OCc3cc(C#N)ccn3)c(CNC[C@@H](O)CC(=O)O)cc2Br)c1C [Example 148, (3S,3′S)-4,4′-((((((2,2′-dimethyl-[1,1′-biphenyl]-3,3′-diyl)bis(methylene))bis(oxy))bis(5-bromo-2-((4-cyanopyridin-2-yl)methoxy)pyridine-6,3-diyl))bis(methylene))bis(azanediyl))bis(3-hydroxybutanoic acid)] | 132 | 124
COCCCOc1nc(OCc2cccc(-c3cccc(COc4nc(OCCCOC)c(CNC[C@@H](O)CC(=O)O)cc4Br)c3C)c2C)c(Br)cc1CNC[C@@H](O)CC(=O)O [Example 149, (3S,3′S)-4,4′-((((((2,2′-dimethyl-[1,1′-biphenyl]-3,3′-diyl)bis(methylene))bis(oxy))bis(5-bromo-2-(3-methoxypropoxy)pyridine-6,3-diyl))bis(methylene))bis(azanediyl))bis(3-hydroxybutanoic acid)] | 275 | 668
COc1nc(OCc2cccc(-c3cccc(COc4nc(OC)c(CNC[C@@H](F)C(=O)O)cc4Cl)c3C)c2C)c(Cl)cc1CNC[C@@H](F)C(=O)O [Example 179, (2R,2′R)-3,3′-((((((2,2′-dimethyl-[1,1′-biphenyl]-3,3′-diyl)bis(methylene))bis(oxy))bis(5-chloro-2-methoxypyridine-6,3-diyl))bis(methylene))bis(azanediyl))bis(2-fluoropropanoic acid)] | 319 | 655
COc1nc(OCc2cccc(-c3cccc(COc4nc(OC)c(CN[C@H](C)[C@@H](O)CC(=O)O)cc4Cl)c3C)c2C)c(Cl)cc1CN[C@H](C)[C@@H](O)CC(=O)O [Example 182, (3S,3′S,4R,4′R)-4,4′-((((((2,2′-dimethyl-[1,1′-biphenyl]-3,3′-diyl)bis(methylene))bis(oxy))bis(5-chloro-2-methoxypyridine-6,3-diyl))bis(methylene))bis(azanediyl))bis(3-hydroxypentanoic acid)] | 91.4 | 439
COc1nc(OCc2cccc(-c3cccc(COc4nc(OC)c(CN[C@@H]5CC[C@H](C(=O)O)C5)cc4Cl)c3C)c2C)c(Cl)cc1CN[C@@H]1CC[C@H](C(=O)O)C1 [Example 185, (1S,1′S,3R,3′R)-3,3′-((((((2,2′-dimethyl-[1,1′-biphenyl]-3,3′-diyl)bis(methylene))bis(oxy))bis(5-chloro-2-methoxypyridine-6,3-diyl))bis(methylene))bis(azanediyl))bis(cyclopentane-1-carboxylic acid)] | 277 | 195
C[C@](CO)(NCc1cc(Br)c(OCc2cccc(-c3cccc(COc4nc(OCc5cncc(C#N)c5)c(CN[C@](C)(CO)C(=O)O)cc4Br)c3Cl)c2Cl)nc1OCc1cncc(C#N)c1)C(=O)O [Example 198, (2R,2′R)-2,2′-((((((2,2′-Dichloro-[1,1′-biphenyl]-3,3′-diyl)bis(methylene))bis(oxy))bis(5-bromo-2-((5-cyanopyridin-3-yl)methoxy)pyridine-6,3-diyl))bis(methylene))bis(azanediyl))bis(3-hydroxy-2-methylpropanoic acid)] | 101 | 69
